What follows are compounds tested against recombinant GST-LRRK2 (wild-type) (Homo sapiens (Human), UniProt Q5S007) (assay: LRRK2 TR-FRET peptide assay (in vitro kinase activity), wild-type). Details: 100 μM ATP, 100 nM biotin-LRRKtide substrate, 10 nM kinase, 60 minutes at room temperature.
Assay type: biochemical
Procedure: Compounds as described herein (compounds of Formula I, e.g., compounds of the above Examples) are tested for their in vitro kinase activities using various LRRK2 (including LRRK2 G2019S mutant) assays. […] Serially diluted compounds (1% DMSO as co-solvent) were pre-incubated with recombinant GST-LRRK2 (wild-type, or G2019S mutant, Invitrogen) for 15 minutes at room temperature in 384-well Corning black plates. […] The inhibition of each well was calculated using the control and background readings for that plate. IC50 values were determined from dose-response curves using eight concentrations from the serial dilution of the test compounds.

recombinant GST-LRRK2 (wild-type), sequence (Q5S007 whole entry): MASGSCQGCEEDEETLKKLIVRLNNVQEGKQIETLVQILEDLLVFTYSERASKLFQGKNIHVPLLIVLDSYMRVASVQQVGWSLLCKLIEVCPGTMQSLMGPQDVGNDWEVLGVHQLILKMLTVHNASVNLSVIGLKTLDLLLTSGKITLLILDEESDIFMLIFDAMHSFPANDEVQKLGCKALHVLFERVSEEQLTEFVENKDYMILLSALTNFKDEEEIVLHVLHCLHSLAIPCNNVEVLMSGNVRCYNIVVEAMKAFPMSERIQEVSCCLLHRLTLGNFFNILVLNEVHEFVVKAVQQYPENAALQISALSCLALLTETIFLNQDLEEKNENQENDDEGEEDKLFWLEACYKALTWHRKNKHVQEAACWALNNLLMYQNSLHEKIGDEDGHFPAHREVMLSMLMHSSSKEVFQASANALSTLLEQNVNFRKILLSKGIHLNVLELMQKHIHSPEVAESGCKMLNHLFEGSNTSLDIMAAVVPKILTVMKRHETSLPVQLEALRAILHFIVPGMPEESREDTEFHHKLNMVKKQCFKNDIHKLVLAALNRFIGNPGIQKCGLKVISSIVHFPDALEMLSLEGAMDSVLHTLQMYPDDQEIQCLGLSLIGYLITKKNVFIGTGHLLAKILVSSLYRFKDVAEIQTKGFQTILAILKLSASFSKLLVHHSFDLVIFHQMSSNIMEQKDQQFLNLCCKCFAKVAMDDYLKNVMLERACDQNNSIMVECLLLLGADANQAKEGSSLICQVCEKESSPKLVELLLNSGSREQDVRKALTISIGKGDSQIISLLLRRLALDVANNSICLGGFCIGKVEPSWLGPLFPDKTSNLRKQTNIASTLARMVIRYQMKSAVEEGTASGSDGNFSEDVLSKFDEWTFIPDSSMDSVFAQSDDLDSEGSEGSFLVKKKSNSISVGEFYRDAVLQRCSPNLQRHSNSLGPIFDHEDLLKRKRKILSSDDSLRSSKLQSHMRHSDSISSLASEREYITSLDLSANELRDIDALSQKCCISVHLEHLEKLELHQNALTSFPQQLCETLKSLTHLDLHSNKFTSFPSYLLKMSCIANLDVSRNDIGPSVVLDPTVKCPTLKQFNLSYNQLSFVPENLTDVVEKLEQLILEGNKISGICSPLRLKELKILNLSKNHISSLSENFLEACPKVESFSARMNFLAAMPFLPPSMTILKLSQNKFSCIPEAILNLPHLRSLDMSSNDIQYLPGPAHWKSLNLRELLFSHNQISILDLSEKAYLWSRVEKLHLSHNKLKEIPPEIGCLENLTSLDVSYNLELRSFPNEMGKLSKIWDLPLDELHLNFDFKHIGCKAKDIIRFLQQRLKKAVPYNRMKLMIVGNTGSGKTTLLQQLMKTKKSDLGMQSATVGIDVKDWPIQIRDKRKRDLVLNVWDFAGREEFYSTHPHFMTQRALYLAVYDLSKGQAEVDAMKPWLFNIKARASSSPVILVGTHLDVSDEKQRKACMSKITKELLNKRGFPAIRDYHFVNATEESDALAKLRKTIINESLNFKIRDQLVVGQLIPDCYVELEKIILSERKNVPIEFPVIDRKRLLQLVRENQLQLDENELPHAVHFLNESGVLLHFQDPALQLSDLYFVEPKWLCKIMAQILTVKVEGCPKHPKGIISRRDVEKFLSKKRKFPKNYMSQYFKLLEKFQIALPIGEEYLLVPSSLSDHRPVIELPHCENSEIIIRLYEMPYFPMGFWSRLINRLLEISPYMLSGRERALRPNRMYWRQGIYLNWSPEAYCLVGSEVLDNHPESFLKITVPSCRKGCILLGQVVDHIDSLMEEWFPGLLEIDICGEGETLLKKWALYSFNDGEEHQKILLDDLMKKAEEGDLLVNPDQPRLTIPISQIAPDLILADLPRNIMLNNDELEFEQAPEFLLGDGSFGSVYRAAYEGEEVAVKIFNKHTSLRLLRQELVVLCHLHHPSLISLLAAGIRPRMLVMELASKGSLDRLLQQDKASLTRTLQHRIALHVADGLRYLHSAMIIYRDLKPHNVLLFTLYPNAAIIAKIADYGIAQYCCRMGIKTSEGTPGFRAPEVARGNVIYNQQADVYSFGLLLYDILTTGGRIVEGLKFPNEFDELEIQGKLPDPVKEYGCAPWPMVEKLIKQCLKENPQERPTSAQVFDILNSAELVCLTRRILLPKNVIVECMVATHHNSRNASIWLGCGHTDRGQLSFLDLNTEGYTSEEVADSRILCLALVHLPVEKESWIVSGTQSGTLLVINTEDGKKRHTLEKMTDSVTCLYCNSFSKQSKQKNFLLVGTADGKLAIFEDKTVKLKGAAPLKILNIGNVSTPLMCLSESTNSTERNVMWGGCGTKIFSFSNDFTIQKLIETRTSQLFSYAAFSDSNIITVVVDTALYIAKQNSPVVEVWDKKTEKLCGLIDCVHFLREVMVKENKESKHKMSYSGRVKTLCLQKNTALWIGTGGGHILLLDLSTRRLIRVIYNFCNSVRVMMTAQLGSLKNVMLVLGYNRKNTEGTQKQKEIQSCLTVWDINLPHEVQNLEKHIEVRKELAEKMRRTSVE

Compound | IC50
C[C@@H](Nc1c(C(N)=O)nnc2cc(-c3ccc(=O)n(C)c3)ccc12)C1CC1 [Compound 2-112, (R)-4-(1-cyclopropylethylamino)-7-(1-methyl-6-oxo-1,6-dihydropyridin-3-yl)cinnoline-3-carboxamide] | < 6 nM
C[C@@H](Nc1c(C(N)=O)nnc2cc(-c3cccc(OCC4CC4)c3)ccc12)C1CC1 [Compound 2-113, (R)-4-(1-cyclopropylethylamino)-7-(3-(cyclopropylmethoxy)phenyl)cinnoline-3-carboxamide] | 51 nM
C[C@@H](Nc1c(C(N)=O)nnc2cc(-c3ccc(C(=O)N(C)C)cc3)ccc12)C1CC1 [Compound 2-114, (R)-4-(1-cyclopropylethylamino)-7-(4-(dimethylcarbamoyl)phenyl)cinnoline-3-carboxamide] | 0.5 nM
COc1ccc(S(C)(=O)=O)cc1-c1ccc2c(N[C@H](C)C3CC3)c(C(N)=O)nnc2c1 [Compound 2-115, (R)-4-(1-cyclopropylethylamino)-7-(2-methoxy-5-(methylsulfonyl)phenyl)cinnoline-3-carboxamide] | 50 nM
C[C@@H](Nc1c(C(N)=O)nnc2cc(-c3ccc(N4CCOCC4=O)cc3)ccc12)C1CC1 [Compound 2-116, (R)-4-(1-cyclopropylethylamino)-7-(4-(3-oxomorpholino)phenyl)cinnoline-3-carboxamide] | 10 nM
C[C@@H](Nc1c(C(N)=O)nnc2cc(-c3ccccc3Cl)ccc12)C1CC1 [Compound 2-117, (R)-7-(2-chlorophenyl)-4-(1-cyclopropylethylamino)cinnoline-3-carboxamide] | 460 nM
COc1cc(C(=O)N(C)C)ccc1-c1ccc2c(N[C@H](C)C3CC3)c(C(N)=O)nnc2c1 [Compound 2-118, (R)-4-(1-cyclopropylethylamino)-7-(4-(dimethylcarbamoyl)-2-methoxyphenyl)cinnoline-3-carboxamide] | 10 nM
C[C@@H](Nc1c(C(N)=O)nnc2cc(-c3cccc4c3CC(=O)N4)ccc12)C1CC1 [Compound 2-119, (R)-4-(1-cyclopropylethylamino)-7-(2-oxoindolin-4-yl)cinnoline-3-carboxamide] | 18 nM
C[C@@H](Nc1c(C(N)=O)nnc2cc(-c3ccc4c(c3)NC(=O)C4)ccc12)C1CC1 [Compound 2-120, (R)-4-(1-cyclopropylethylamino)-7-(2-oxoindolin-6-yl)cinnoline-3-carboxamide] | 1 nM
C[C@@H](Nc1c(C(N)=O)nnc2cc(-c3cccc4c3NC(=O)C4)ccc12)C1CC1 [Compound 2-121, (R)-4-(1-cyclopropylethylamino)-7-(2-oxoindolin-7-yl)cinnoline-3-carboxamide] | 2 nM
C[C@@H](Nc1c(C(N)=O)nnc2cc(-c3ccn(C)c(=O)c3)ccc12)C1CC1 [Compound 2-122, (R)-4-(1-cyclopropylethylamino)-7-(1-methyl-2-oxo-1,2-dihydropyridin-4-yl)cinnoline-3-carboxamide] | 8 nM
C[C@@H](Nc1c(C(N)=O)nnc2cc(-c3ccccc3S(C)(=O)=O)ccc12)C1CC1 [Compound 2-123, (R)-4-(1-cyclopropylethylamino)-7-(2-(methylsulfonyl)phenyl)cinnoline-3-carboxamide] | 430 nM
CC(C)Nc1c(C(N)=O)nnc2ccc(-c3ccccc3)cc12 [Compound 2-124, 4-(isopropylamino)-6-phenylcinnoline-3-carboxamide] | 630 nM
CC(C)Nc1c(C(N)=O)nnc2ccc(-c3ccc(S(C)(=O)=O)cc3)cc12 [Compound 2-125, 4-(isopropylamino)-6-(4-(methylsulfonyl)phenyl)cinnoline-3-carboxamide] | 2900 nM
CC(C)Nc1c(C(N)=O)nnc2ccc(-c3ccncc3)cc12 [Compound 2-126, 4-(isopropylamino)-6-(pyridin-4-yl)cinnoline-3-carboxamide] | 30 nM
CC(C)Nc1c(C(N)=O)nnc2ccc(-c3cn[nH]c3)cc12 [Compound 2-127, 4-(isopropylamino)-6-(1H-pyrazol-4-yl)cinnoline-3-carboxamide] | < 6 nM
CC(C)Nc1c(C#N)nnc2ccc(-c3cn[nH]c3)cc12 [Compound 2-128, 4-(isopropylamino)-6-(1H-pyrazol-4-yl)cinnoline-3-carbonitrile] | 120 nM
CC(C)Nc1c(C(N)=O)nnc2ccc(-c3cnn(C)c3)cc12 [Compound 2-129, 4-(isopropylamino)-6-(1-methyl-1H-pyrazol-4-yl)cinnoline-3-carboxamide] | 380 nM
CC(C)Nc1c(C(N)=O)nnc2ccc(-c3nccs3)cc12 [Compound 2-130, 4-(isopropylamino)-6-(thiazol-2-yl)cinnoline-3-carboxamide] | 570 nM
CC(C)Nc1c(C(N)=O)nnc2ccc(-c3cncs3)cc12 [Compound 2-131, 4-(isopropylamino)-6-(thiazol-5-yl)cinnoline-3-carboxamide] | 110 nM
CCC(CC)Nc1c(C(N)=O)nnc2cc(-c3ccncc3)ccc12 [Compound 2-134, 4-(pentan-3-ylamino)-7-(pyridin-4-yl)cinnoline-3-carboxamide] | 26 nM
NC(=O)c1nnc2cc(-c3ccncc3)ccc2c1NCCCO [Compound 2-136, 4-(3-hydroxypropylamino)-7-(pyridin-4-yl)cinnoline-3-carboxamide] | 120 nM
NC(=O)c1nnc2cc(-c3ccncc3)ccc2c1NCCO [Compound 2-137, 4-(2-hydroxyethylamino)-7-(pyridin-4-yl)cinnoline-3-carboxamide] | 150 nM
COc1cc(Br)ccc1-c1ccc(OC)c(-c2ccc3c(N[C@H](C)C4CC4)c(C(N)=O)nnc3c2)c1 [Compound 2-203, (R)-7-(4′-bromo-2′,4-dimethoxybiphenyl-3-yl)-4-(1-cyclopropylethylamino)cinnoline-3-carboxamide] | 8700 nM
CCC(C)Sc1c(C(N)=O)nnc2cc(-c3ccc(S(C)(=O)=O)cc3)ccc12 (stereo not drawn) [Compound 2-243, 4-(sec-butylthio)-7-(4-(methylsulfonyl)phenyl)cinnoline-3-carboxamide] | 12000 nM
CC(C)Nc1c(I)nnc2cc(-c3ccc(S(C)(=O)=O)cc3)ccc12 [Compound 3-68, 3-iodo-N-isopropyl-7-(4-(methylsulfonyl)phenyl)cinnolin-4-amine] | 950 nM
CC(C)Nc1c(-c2cscn2)nnc2cc(-c3ccc(S(C)(=O)=O)cc3)ccc12 [Compound 3-70, N-isopropyl-7-(4-(methylsulfonyl)phenyl)-3-(thiazol-4-yl)cinnolin-4-amine] | > 100000 nM
CC(C)Nc1c(-c2ncco2)nnc2cc(-c3ccc(S(C)(=O)=O)cc3)ccc12 [Compound 3-71, N-isopropyl-7-(4-(methylsulfonyl)phenyl)-3-(oxazol-2-yl)cinnolin-4-amine] | > 100000 nM
CC(C)Nc1c(-c2cccnc2)nnc2cc(-c3ccc(S(C)(=O)=O)cc3)ccc12 [Compound 3-72, N-isopropyl-7-(4-(methylsulfonyl)phenyl)-3-(pyridin-3-yl)cinnolin-4-amine] | 13000 nM
CC(C)Nc1c(Cl)nnc2cc(-c3ccc(S(C)(=O)=O)cc3)ccc12 [Compound 3-84, 3-chloro-N-isopropyl-7-(4-(methylsulfonyl)phenyl) cinnolin-4-amine] | 1600 nM

— patent publication US9884828B2, “Substituted cinnolines as inhibitors of LRRK2 kinase activity” (Imago Pharmaceuticals, Inc., priority 2011, dated 2018)
